From PubChem BioAssay (NCI)
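Results reflect a 48-hour exposure of cells in 96-well plates to compound at five concentrations. At the TGI there is no net growth.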

Assays:
Assay in all cases: inhibition of tumour cell growth, NCI panel, 48 h
[1] = tested on: UO-31 renal
[2] = tested on: COLO 205 colon
[3] = tested on: SK-MEL-5 melanoma
[4] = tested on: DU-145 prostate
[5] = tested on: MOLT-4 leukemia
[6] = tested on: LOX IMVI melanoma
[7] = tested on: PC-3 prostate
[8] = tested on: SF-295 CNS
[9] = tested on: NCI/ADR-RES ovarian
[10] = tested on: MDA-N
[11] = tested on: MCF7 breast
[12] = tested on: SNB-19 CNS
[13] = tested on: HCT-15 colon
[14] = tested on: SK-MEL-2 melanoma
[15] = tested on: HL-60(TB) leukemia
[16] = tested on: ACHN renal
[17] = tested on: MALME-3M melanoma
[18] = tested on: NCI-H522 lung

Structure (SMILES) | TGI [1] [µM] | TGI [2] [µM] | TGI [3] [µM] | TGI [4] [µM] | TGI [5] [µM] | TGI [6] [µM] | TGI [7] [µM] | TGI [8] [µM] | TGI [9] [µM] | TGI [10] [µM] | TGI [11] [µM] | TGI [12] [µM] | TGI [13] [µM] | TGI [14] [µM] | TGI [15] [µM] | TGI [16] [µM] | TGI [17] [µM] | TGI [18] [µM]
O=C(O)c1ccc(C(c2c(O)c3ccccc3oc2=O)c2c(O)c3ccccc3oc2=O)cc1 | > 100 | > 100 | > 100 | > 100 | > 100 | > 100 | > 100 | > 100 | > 100 | > 100 | > 100 | > 100 | > 100 | > 100 | 0.129 | > 100 | – | –
O=c1ccn2n1CCCCC2 | > 100 | > 100 | > 100 | > 100 | > 100 | > 100 | > 100 | > 100 | > 100 | > 100 | – | > 100 | > 100 | > 100 | > 100 | > 100 | > 100 | > 100
COc1cc([N+](=O)[O-])ccc1NC1=CC(=O)CCC1 | > 100 | > 100 | > 100 | > 100 | > 100 | > 100 | > 100 | > 100 | > 100 | > 100 | > 100 | > 100 | > 100 | > 100 | > 100 | > 100 | > 100 | –
COC(=O)C(Cc1ccccc1)OC(=O)C(N)CC(=O)O (stereo not given) | > 100 | > 100 | > 100 | > 100 | > 100 | – | > 100 | > 100 | > 100 | > 100 | > 100 | > 100 | > 100 | > 100 | – | > 100 | > 100 | > 100
COc1ccc(/C=C/C(=O)N[C@@H]2C(=O)N3[C@@H]2SC(C)(C)[C@@H]3C(=O)O)cc1 | > 100 | > 100 | > 100 | > 100 | > 100 | > 100 | > 100 | > 100 | > 100 | > 100 | > 100 | > 100 | > 100 | > 100 | > 100 | > 100 | – | > 100
CC(=O)Oc1cc2c(cc1OC(C)=O)[C@H]1CC[C@]3(C)[C@@H](OC(C)=O)CC[C@H]3[C@@H]1CC2 | 13 | 15.5 | 20.4 | 38.9 | – | 16.6 | 25.5 | 24.3 | 29.5 | 16.5 | 20.9 | 21.7 | 15.4 | 16.1 | – | 16.5 | – | 3.85
CCOC(=O)[C@@]12CCC(C1=O)[C@](C)(O)C[C@@H]2c1ccccc1 | > 100 | > 100 | > 100 | > 100 | > 100 | > 100 | > 100 | > 100 | > 100 | 16.8 | – | > 100 | > 100 | > 100 | > 100 | > 100 | > 100 | 52.1
Cc1c2c(n(Cc3ccccn3)c1C)NN=C(C#N)S2(=O)=O | > 100 | > 100 | > 100 | > 100 | > 100 | > 100 | > 100 | > 100 | > 100 | > 100 | > 100 | > 100 | > 100 | > 100 | – | > 100 | – | > 100
N/N=C1/CCCc2nonc21 | – | > 100 | > 100 | > 100 | > 100 | > 100 | > 100 | > 100 | > 100 | > 100 | > 100 | – | > 100 | > 100 | > 100 | > 100 | > 100 | –
COc1cccc(N2C(=O)CSC2c2cc(OC)c(OC)c(OC)c2)c1 (stereo not given) | > 100 | 76.8 | > 100 | 39.7 | > 100 | > 100 | > 100 | 97.8 | 91.4 | 37.1 | > 100 | 63 | > 100 | > 100 | 98 | > 100 | – | 90.4
COc1ccc2c(c1)N=C1CSC(c3cc([N+](=O)[O-])ccc3Cl)N1C2 (stereo not given) | 57.9 | 79.6 | > 100 | – | 77.8 | > 100 | 59.3 | > 100 | 74.1 | > 100 | 42.6 | > 100 | 96.4 | 51.1 | 55.7 | 54.1 | 60.4 | 57
CCOP(=O)(OCC)/C(C#N)=C/c1cccn1CC(C)C | > 100 | > 100 | > 100 | > 100 | > 100 | > 100 | > 100 | > 100 | > 100 | > 100 | > 100 | > 100 | > 100 | > 100 | – | > 100 | > 100 | > 100
O=C(OCC1OC(c2nn[nH]n2)C(OC(=O)c2ccccc2)C1OC(=O)c1ccccc1)c1ccccc1 (stereo not given) | > 100 | > 100 | > 100 | > 100 | > 100 | > 100 | > 100 | > 100 | > 100 | > 100 | > 100 | > 100 | > 100 | > 100 | > 100 | > 100 | > 100 | –
CCOC(=O)C1=c2[nH]c3cccc4cccc(c43)n2C=C(C(C)=O)C1CC(C)=O (stereo not given) | > 100 | > 100 | > 100 | > 100 | > 100 | > 100 | > 100 | > 100 | > 100 | > 100 | > 100 | > 100 | > 100 | > 100 | 59.2 | > 100 | – | –
